Patent publication US9107954B2, “Bivalent ligands for the treatment of neurological disorders” (Virginia Commonwealth University, priority 2012, dated 2015)

How the values were obtained:
CCR5 and MOR = assay: Flow cytometry of CCR5 and MOR co-localization in HIV-1 infected primary human astrocytes; assay type: cell-based
Experimental: MOR and CCR5 immunoreactivity were detected by direct immunofluorescence in astroglial cells by flow cytometric analysis. Cells were washed in phosphate-buffered saline (PBS)-0.1% bovine serum albumin (BSA) buffer and incubated with primary MOR antibody followed by a secondary antibody conjugated to allophycocyanin (APC) (Biolegend, Inc; catalog #408001) and Alexa Fluor® 488 conjugated anti-mouse CD195 (CCR5) antibody (Biolegend, Inc; catalog #107008) in permeabilization buffer (PBS-0.1% BSA-0.1% Triton X-100) at a 1:500 dilution. Fluorescence was measured from 10,000 gated cells per treatment in each experiment using a FACSCanto II flow cytometer (BD Biosciences, San Jose, Calif.). Auto-fluorescence was compensated by setting the detector voltage to the minimum level that discriminates between auto-fluorescence and specific immunofluorescence in both negative and positive controls. Isotype control antibodies were used to define settings in histogram plot analyses.
We quantitatively analyzed the effect of MVC and the bivalent compound on CCR5 and MOR expression levels in virally infected astrocytes by flow cytometry. […] Approximately 20,000 events were analyzed per treatment condition in each experiment and size discrimination was used as a crude method for viability determination.

[1] = system: fusion of CCR5-MOR CHO target cells (CD4) with HEK effector cells (HIV-1 gp140); assay type: cell-based
CCR5 = CCR5 (Homo sapiens (Human), UniProt P51681); assay: RANTES-stimulated Ca2+ flux assay in Gqi5 transfected CCR5-MOLT-4 cells (Example 4); assay type: cell-based
human astrocytes = assay: Cytotoxicity assay, AOPI live/dead labeling of human astrocytes; assay type: cell-based
Experimental: Cell viability was assessed by measurement of both live and dead cells using dual (green/red) fluorescence labeling with AOPI analyzed with Cellometer Vision CBA (Nexcelom Bioscience LLC).
To determine whether HIV-1±morphine exposure affected astrocyte viability in the presence or absence of MVC or the bivalent compound, a cell death assay was performed at 24 h after treatment.

MOR = MOR (Homo sapiens (Human), UniProt P35372); assay: DAMGO-stimulated Ca2+ flux assay in hMOR-CHO cells transfected with Gqi5; assay type: cell-based
TNF-α = assay: Cytokine release ELISA, HIV-1 infected astroglia supernatant: TNF-α; assay type: cell-based, human; conditions: 18-20 h; bivalent ligand ± morphine
Experimental: (§1) The protein levels of the cytokines TNF-α, IL-6, IL-1β and the chemokine RANTES were measured by ELISA (Quantikine kits; R&D Systems Minneapolis, Minn.).
(§2) After 18-20 h exposure, supernatant was removed and analyzed by ELISA to quantitatively analyze the release of the cytokines TNF-α, IL-1β and IL-6 and the chemokine RANTES.

[2] = system: R5-tropic HIV-1SF162 in primary human astrocytes; assay: HIV-1SF162 infectivity, Tat luciferase reporter assay in primary human astrocytes; assay type: cell-based
Experimental: Primary human astrocytes (ScienCell catalog #1901) were cultured in 24-well plates and transfected with the plasmid pBlue3′LTR-luc (NIH AIDS Research and Reference Reagent Program) using Lipofectamine 2000 (Invitrogen) followed by infection with HIV-1. After 18-20 h cells were rinsed twice in 1×PBS then lysed in Cell Culture Lysis Reagent (Promega) and relative Tat protein expression was determined by measuring luciferase activity using the Luciferase Assay System (Promega; catalog # E1500). Light units were measured using a PHERAstar FS plate reader (BMG Labtech).
Primary human astroglial cells were infected by incubation with the neurotropic HIV-1 strain SF162. A concentration of HIV-1 p24 50 pg/10^6 cells was used, and a no virus condition served as a negative control. Viral stocks were quantified by assaying for HIV-1 p24 (Alliance p24 Antigen ELISA Kit; Advanced Bioscience, Kensington, Md.).
HIV-1SF162 infectivity of human astroglia was determined based on the relative amount of Tat protein expressed by the virus using a luciferase-based reporter assay. Reporters under the control of the long terminal repeat (LTR) viral promoter are a robust means of measuring HIV-1 infection, since the LTR is activated by HIV-1 Tat, which is only expressed by infected cells.
As the bivalent ligand 1 has been designed as a molecular probe to study the underlying mechanisms of opioid-enhanced NeuroAIDS by targeting the MOR-CCR5 heterodimerization, a luciferase-based HIV-1SF162) infection assay measuring the relative transactivator of transcription (Tat) protein expression in human astrocytes was performed (FIG. 15). Tat is encoded by HIV-1 and is the first protein to be produced after HIV-1 infection. Thus, Tat expression level is directly proportioned to the extent of HIV-1 invasion. Astrocytes were chosen based on the following facts: first, astrocytes express both the MOR and the CCR5. Second, the human blood-brain barrier (BBB) is composed of interacting adjacent cerebral endothelial cells (CECs) and astrocytes, which makes astrocytes a readily accessible target during the course of HIV infection. Thirdly, during NeuroAIDS development astroglia are important cellular sites within the CNS where opioids synergistically potentiate the pathophysiological effects of HIV-1 infection.

mu opioid receptor = mu opioid receptor (Homo sapiens (Human), UniProt P35372); assay: biochemical; conditions: read-out: Emax, 35S-GTP[γS] binding
Experimental: MOR/CHO cell culture and membrane homogenate preparation followed literature report^52.
For competition binding assay (agonists or antagonists), Hill plots linear regression analysis and the Cheng-Prusoff equation were applied to determine the IC50 and Ki values. In [^35S]GTPγS binding assays, agonist concentration effect curves were fit by non-linear regression to obtain Emax and EC50 values; antagonist inhibition of agonist-stimulated [^35S]GTPγS binding was analyzed by Hill analysis and AD50 values were corrected to Ki values using the Cheng-Prusoff equation. All analyses were using Prism 4.0.

IL-6 = assay: Cytokine release ELISA, HIV-1 infected astroglia supernatant: IL-6; assay type: cell-based, human; conditions: 18-20 h; bivalent ligand ± morphine
Experimental: as §1, §2

Sequence of CCR5 (P51681 whole entry): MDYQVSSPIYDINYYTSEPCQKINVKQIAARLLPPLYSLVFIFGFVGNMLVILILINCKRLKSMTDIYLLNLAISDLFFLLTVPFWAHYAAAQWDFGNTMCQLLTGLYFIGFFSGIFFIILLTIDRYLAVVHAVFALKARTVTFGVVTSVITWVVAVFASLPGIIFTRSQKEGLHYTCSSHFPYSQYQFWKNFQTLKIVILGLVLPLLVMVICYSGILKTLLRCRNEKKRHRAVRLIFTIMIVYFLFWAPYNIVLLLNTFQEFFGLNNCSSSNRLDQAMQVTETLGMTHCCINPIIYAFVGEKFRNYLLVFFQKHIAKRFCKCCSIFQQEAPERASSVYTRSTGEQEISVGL

Cc1nnc(C(C)C)n1C1CC2CCC(C1)N2CC[C@H](NC(=O)C1CCC(F)(F)CC1)c1ccc(NC(=O)COCC(=O)NCCCCCCCNC(=O)COCC(=O)N[C@@H]2CC[C@@]3(O)[C@H]4Cc5ccc(O)c6c5[C@@]3(CCN4CC3CC3)[C@H]2O6)cc1 (some centres unmarked) [bivalent ligand 1]
fold increase in astrocytes expressing both CCR5 and MOR compared to R5 HIV-1 alone (CCR5 and MOR): 1.6 fold | effect on cell fusion ([1]; 1 at 3000 nM, 2 at 10000 nM, maraviroc at 100 nM): significantly lowered cell fusion | amplification of cell fusion inhibition when morphine present ([1]; morphine 300 nM): 2 fold | fold less potent than maraviroc in RANTES induced Ca2+ flux inhibition (CCR5): approximately 60 fold | IC50 (CCR5; RANTES stimulated, read-out: Ca2+ inhibition IC50 ± SEM): 126 ± 28 nM | CCR5 agonism (CCR5; data not shown): no CCR5 agonism | astrocyte viability (human astrocytes; 100 nM, HIV-1 ± morphine, 24 h): did not significantly affect the survival | toxicity in the astrocytes, cytotoxicity assays (not shown) (human astrocytes; Example 3): neither maraviroc nor 1 had any toxicity | fold reduction of potency to antagonize DAMGO-induced Ca2+ flux compared to naltrexone (MOR): less than 5 fold | IC50 (MOR; DAMGO stimulated, hMOR-CHO Gqi5, read-out: Ca2+ inhibition IC50 ± SEM): 40 ± 4.8 nM | agonism in Ca2+ mobilization assay (MOR; hMOR-CHO Gqi5, data not shown): No agonism | fold decrease in TNF-α release compared to R5 HIV-1 alone (TNF-α): 2.0 fold | potency in HIV-1 entry inhibition relative to the mixture of maraviroc and naltrexone [2]: two times | decrease in Tat expression compared to maraviroc alone or the combination of maraviroc and naltrexone ([2]; 100 nM): two-fold | fold decrease in Tat expression compared to MVC with NTX plus morphine, bivalent compound plus morphine ([2]; 100 nM + morphine 500 nM): 4.4 fold | fold decrease in Tat expression compared to R5 plus MVC, bivalent compound plus morphine ([2]; 100 nM + morphine 500 nM): 2.9 fold | fold decrease in Tat expression compared to R5 HIV-1 alone ([2]; 100 nM, 18-20 h post-infection, no morphine): 4.4 fold | fold decrease in virus entry compared to maraviroc with morphine ([2]; 100 nM, morphine 500 nM, Example 3): 7 fold | fold decrease in virus entry compared to maraviroc alone ([2]; 100 nM, without morphine, Example 3): 3.3 fold | fold decrease in Tat expression compared to R5 plus MVC ([2]; bivalent ligand 100 nM, no morphine): 2.0 fold | effect of morphine stimulation on potency ([2]; morphine 500 nM): no effect | Emax (mu opioid receptor): 11.7 ± 1.2% | fold decrease in IL-6 release compared to R5 HIV-1 alone (IL-6): 1.6 fold
